Data on one molecule can be found in PMC6344531, “Discovery and evaluation of inhibitor of LARP6 as specific antifibrotic compound” (Scientific Reports, 2019).

For the experiment, the target named is T1, LARP6 (Homo sapiens, UniProt Q9BRS8).
T1 construct: LARP6*, amino-acids 72–303, His-tag
T1 sequence (Q9BRS8 72-303): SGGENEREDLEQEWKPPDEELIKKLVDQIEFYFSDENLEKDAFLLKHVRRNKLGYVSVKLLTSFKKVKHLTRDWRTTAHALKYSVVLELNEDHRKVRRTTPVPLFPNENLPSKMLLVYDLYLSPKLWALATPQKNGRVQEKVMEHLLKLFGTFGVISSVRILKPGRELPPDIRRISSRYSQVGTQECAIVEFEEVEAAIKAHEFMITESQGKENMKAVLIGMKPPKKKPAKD
As to the kind of experiment: FP dissociation of LARP6* from fluorescein-labelled […]'SL RNA; intrinsic tryptophan fluorescence quenching of LARP6*; gel mobility shift with extracts of treated cells. Type of experiment: binding.

On to `Cc1cccn2c(=O)c3cc(C(=O)Nc4cccnc4)n(C)c3nc12` [C9], for which the IC50 (in general, the concentration that inhibits the measured activity by half) was around 15 µM.
